Measured values: paper PMC6930503, “Antiviral, Antimicrobial and Antibiofilm Activity of Selenoesters and Selenoanhydrides” (Molecules, 2019)
Values after ≈ are worked out from the molar mass of the structure shown.

What was measured:
[1] = system: Candida albicans ATCC 10231; settings: reference, range calculated from data in bibliography; cited from earlier work
[2] = system: Candida parapsilosis ATCC 22019; settings: reference, range calculated from data in bibliography; cited from earlier work
[3] = system: Candida krusei ATCC 14243; settings: reference, range calculated from data in bibliography; cited from earlier work
[4] = system: Candida albicans ATCC 10231; assay: Antifungal disk-diffusion; settings: ATCC10231, 72 h, read-out: Inhibition Zone Diameter
Method: (§6) Disk diffusion. The antifungal activity of the selenocompounds against selected pathogenic yeasts were screened, measuring their inhibition zones [49]. Solutions of the selenocompounds were set at two concentrations: 200 µM (from a 10 mM stock solution) and 10 mM. The sterile filter paper discs (diameter (D) 6 mm) impregnated with the solutions (10 µL of solutions) were placed on Saboraud Dextrose Agar (SDA), inoculated with the respective suspensions of yeasts (inocula of 0.5 McFarland’s standard). The solvent (DMSO) served as negative control, and an additional plate was inoculated without disks, to serve as growth control. The inocula were used within 15 min of preparation, the disks were applied within 15 min of inoculating the plates, and incubation started within 15 min of application of the disks (according to EUCAST standards). The plates were then incubated for 72 h, under aerobic conditions, at 37 °C. Inhibition zone diameters generated by the tested compounds (including the diameter of the disc) were measured. All experiments were performed in triplicate.

[5] = system: Candida krusei ATCC 14243; assay: Antifungal disk-diffusion; settings: Pichia kudriavzevii, ATCC14243, 72 h; for zone of inhibition at 200 µM: read-out: Inhibition Zone Diameter, 200 µM on disk, 72 h; for zone of inhibition at 10000 µM: read-out: Inhibition Zone Diameter, 10 mM on disk, 72 h
Method: as §6

[6] = MTT cytotoxicity assay on Vero cells; settings: African green monkey
S. aureus ATCC 25923 [7] = assay: Biofilm formation assay with crystal violet; format: cell-based; settings: Staphylococcus aureus, ATCC25923, 48 h; for inhibition at 50 µM: compound at 50 μM
Method: (§1) The biofilm-forming ability of S. Typhimurium and S. aureus ATCC strains was studied in 96-well microtiter plates, using Luria-Bertani (LB) broth without salt (S. Typhimurium) or tryptic soy broth TSB (S. aureus) in the presence of selenocompounds. Initially, overnight cultures were diluted to an optical density (OD) of 0.1 at 600 nm and then added to each well, with the exception of the medium control wells and compounds were added individually at ½ MIC. The final volume was 200 μL in each well. Plates were incubated at 30 °C, for 48 h, with gentle agitation (100 rpm). After the incubation period, the medium was discarded, and the plate was washed with tap water, to remove unattached cells. Then, 200 μL of crystal violet (CV; 0.1% [v/v]) was added to the wells and incubated for 15 min at room temperature. CV was removed from the wells, and the plate was washed again with tap water. Then, 200 μL of 70% ethanol was added to each well, and the biofilm formation was determined by measuring the OD at 600 nm, using a FLUOstar Optima plate reader (BMG Labtech, Aylesbury, UK). The antibiofilm effect of selenocompounds was expressed in the percentage (%) decrease in biofilm formation. The assay was repeated a minimum of three times. The results were analyzed by using the t-test and p-values of <0.05 were considered significant.

[8] = system: Candida parapsilosis ATCC 22019; assay: Antifungal disk-diffusion; settings: Lodderomyces parapsilosis, ATCC22019, 72 h, read-out: Inhibition Zone Diameter
Method: as §6

[9] = system: Candida krusei ATCC 14243; assay: Antifungal broth microdilution MIC; format: cell-based; settings: Pichia kudriavzevii, ATCC14243, read-out: Minimal inhibitory concentration
Method: (§2) This MIC values were calculated by using the broth microdilution method (Table 3).
(§3) Broth microdilution method. […] Determination of the MIC values was performed by using the broth microdilution method, according to EUCAST standards.

[10] = system: Candida albicans ATCC 10231; assay: Antifungal broth microdilution MIC; format: cell-based; settings: ATCC10231, read-out: Minimal inhibitory concentration
Method: as §2, §3

[11] = system: Candida parapsilosis ATCC 22019; assay: Antifungal broth microdilution MIC; format: cell-based; settings: Lodderomyces parapsilosis, ATCC22019, read-out: Minimal inhibitory concentration
Method: as §2, §3

[12] = system: Cryptococcus diffluens ATCC 32059; assay: Antifungal broth microdilution MIC; format: cell-based; settings: Naganishia diffluens, ATCC32059, read-out: Minimal inhibitory concentration
Method: as §2, §3

[13] = system: Candida tropicalis ATCC 13803; assay: Antifungal disk-diffusion; settings: ATCC13803, 72 h, read-out: Inhibition Zone Diameter
Method: as §6

HSV-2 = assay: Anti-HSV-2 activity by qPCR in infected Vero cells; settings: for minimal effective concentration: Human alphaherpesvirus 2, Vero, 24 h, read-out: lowest concentration with (significant) antiviral activity against HSV-2, Vero cells infected with HSV-2, MOI 0.01, qPCR after 24 h; for antiviral activity at x-fold lower concentration than acyclovir: compared with acyclovir
[14] = system: Candida glabrata ATCC 36909; assay: Antifungal disk-diffusion; settings: Nakaseomyces glabratus, ATCC36909, 72 h; for zone of inhibition at 200 µM: read-out: Inhibition Zone Diameter, 200 µM on disk, 72 h; for zone of inhibition at 10000 µM: read-out: Inhibition Zone Diameter, 10 mM on disk, 72 h
Method: as §6

[15] = system: S. enterica serovar Typhimurium 14028s; assay: Biofilm formation assay with crystal violet; format: cell-based, Salmonella enterica serovar Typhimurium; settings: Salmonella enterica, compound at 50 μM, 48 h
Method: as §1

[16] = system: S. enterica serovar Typhimurium 14028s; assay: Antibiofilm effect in combination with tetracycline; format: cell-based, Salmonella enterica serovar Typhimurium; settings: compound at ½ MIC; for antibiofilm effect in the presence of TET: 1.25 µM of TET; for effect on the antibiofilm activity of TET compared to TET alone: 2.5 µM of TET
Method: (§4) […]; 4, 5, 7, 8 and 9 for S. Typhimurium).
(§5) […]. The effect was determined by two-fold broth microdilution method in 96-well plates, using serial dilutions of TET and CIP. The first four rows contained two-fold dilutions of antibiotics, and combinations of the antibiotics and tested compounds were added into the last four rows. The overnight bacterial cultures were diluted to an OD of 0.1 at 600 nm and then added to each well, in 50 μL LB, without salt or TSB, with the exception of the medium control wells. The plates were then incubated at 30 °C, for 48 h, with gentle agitation (100 rpm), and the biofilm formation was determined by measuring the OD at 600 nm, using a FLUOstar Optima plate reader. The antibiofilm effect of antibiotic alone and in combination with selenocompounds was expressed in the percentage (%) of decrease in biofilm formation. The results were analyzed by using the t-test and p-values of <0.05 were considered significant.

[17] = system: selected pathogenic yeasts; assay: Antifungal disk-diffusion screening, overall statement on all evaluated strains; settings: 200 µM and 10 mM on disk
Method: as §6

S. aureus ATCC 25923 [18] = assay: Antibiofilm effect in combination with ciprofloxacin; format: cell-based, Staphylococcus aureus; settings: CIP at 1.6 µM, compound at ½ MIC
Method: as §4, §5

[19] = system: Cryptococcus diffluens ATCC 32059; assay: Antifungal disk-diffusion; settings: Naganishia diffluens, ATCC32059, 72 h, read-out: Inhibition Zone Diameter
Method: as §6

[20] = Vero cells infected with HSV-2, qPCR

Row | Compound | zone of inhibition at 10000 µM [4] [mm] | zone of inhibition at 10000 µM [5] [mm] | IC50 at 24 h [6] [µM] | inhibition at 50 µM (S. aureus ATCC 25923 [7]) [%] | zone of inhibition at 10000 µM [8] [mm] | MIC [9] [µM] | MIC [10] [µM] | MIC [11] [µM] | MIC [12] [µM] | minimal effective concentration (HSV-2) [µM] | antiviral activity at concentration x-fold lower than the cytotoxic concentration (IC50 in Vero cells) (HSV-2) [fold] | zone of inhibition at 10000 µM [14] [mm] | inhibition at 50 µM [15] [%] | effect on the antibiofilm activity of TET compared to TET alone [16] | also measured
1 | CC[C@H](C)C[C@H](C)CCCCCCCCC(=O)N[C@H]1C[C@@H](O)[C@@H](NCCN)NC(=O)[C@@H]2[C@@H](O)CCN2C(=O)[C@H]([C@H](O)CCN)NC(=O)[C@H]([C@H](O)[C@@H](O)c2ccc(O)cc2)NC(=O)[C@@H]2C[C@@H](O)CN2C(=O)[C@H]([C@@H](C)O)NC1=O [CSP, caspofungin] | – | – | – | – | – | – | – | – | – | – | – | – | – | – | Minimal inhibitory concentration [1]: ≤7 to 110 nM; Minimal inhibitory concentration [2]: 0.110 to 1.83 µM; Minimal inhibitory concentration [3]: 0.055 to 0.229 µM
2 | O=C1[Se]C(=O)c2ccccc21 [Compound 1] | > 30 | > 30 | > 100 | > 70 | 6 | 100 (≈ 21.1 µg/mL) | 50 (≈ 10.6 µg/mL) | > 200 | > 200 | 12.5 | 8 | 13 | – | – | zone of inhibition at 200 µM [4]: 14 mm; zone of inhibition at 200 µM [5]: 11 mm; zone of inhibition at 200 µM [13]: 3 mm; zone of inhibition at 10000 µM [13]: > 30 mm; zone of inhibition at 200 µM [14]: 2 mm
3 | C[Se]C(=O)c1ccc(C(=O)[Se]C)s1 [Compound 2] | – | – | > 100 | – | – | – | – | – | – | – | – | – | > 50 | – | antiviral activity against HSV-2 (in words) (HSV-2; [20]): did not reduce the number of HSV-2
4 | C[Se]C(=O)c1cccc(C(=O)[Se]C)n1 [Compound 3] | – | – | > 100 | – | – | – | – | – | – | 10 | – | – | > 50 | – | –
5 | C[Se]C(=O)c1cccc(C(=O)[Se]C)c1 [Compound 4] | – | – | > 100 | – | – | – | – | – | – | – | – | – | 75 | – | antibiofilm effect in the presence of TET [16]: significantly higher antibiofilm effects; antiviral activity against HSV-2 (in words) (HSV-2; [20]): did not reduce the number of HSV-2
6 | C[Se]C(=O)c1ccc(C(=O)[Se]C)cc1 [Compound 5] | – | – | > 100 | – | – | – | – | – | – | – | – | – | 73 | significantly reduced the activity of the antibiotic | antiviral activity against HSV-2 (in words) (HSV-2; [20]): did not reduce the number of HSV-2
7 | NC(=O)C[Se]C(=O)c1ccccc1 [Compound 6] | – | – | > 100 | > 70 | – | – | – | – | – | 25 | 2 | < 10 | – | – | –
8 | COC(=O)C[Se]C(=O)c1ccc(Cl)cc1 [Compound 7] | – | – | > 100 | > 70 | – | – | – | – | – | 12.5 | 8 | – | – | significantly reduced the activity of the antibiotic | antifungal activity in the disk-diffusion assay (in words) [17]: did not show antifungal activity; effect on the antibiofilm activity of CIP (S. aureus ATCC 25923 [18]): significantly increased the activity of CIP; concentration at which replication of HSV-2 was completely inhibited (HSV-2; [20]): 50 µM
9 | O=C(C[Se]C(=O)c1ccccc1)Oc1ccccc1 [Compound 8] | – | – | > 100 | > 70 | – | – | – | – | – | 12.5 | 8 | – | – | significantly reduced the activity of the antibiotic | antibiofilm effect in the presence of TET [16]: significantly higher antibiofilm effects
10 | CC(=O)C[Se]C(=O)c1ccc(Cl)cc1 [Compound 9] | > 30 | > 30 | 31 | – | > 30 | 50 (≈ 13.8 µg/mL) | > 200 | > 200 | 100 (≈ 27.6 µg/mL) | – | – | > 30 | – | significantly reduced the activity of the antibiotic | zone of inhibition at 200 µM [19]: 12 mm; zone of inhibition at 10000 µM [19]: 29 mm; zone of inhibition at 200 µM [5]: 19 mm; antibiofilm effect in the presence of TET [16]: significantly higher antibiofilm effects; zone of inhibition at 200 µM [8]: 4 mm; zone of inhibition at 200 µM [13]: 2 mm; zone of inhibition at 10000 µM [13]: 25 mm; zone of inhibition at 200 µM [14]: 6 mm
11 | CC(C)(C)C(=O)C[Se]C(=O)c1ccc(Cl)cc1 [Compound 10] | > 30 | > 30 | 45 | – | > 30 | 50 (≈ 15.9 µg/mL) | > 200 | > 200 | > 200 | 5 | 9 | 25 | – | – | zone of inhibition at 200 µM [5]: 14 mm; inhibition at 10 µM (S. aureus ATCC 25923 [7]; compound at 10 μM): > 70%; zone of inhibition at 200 µM [8]: 2 mm; zone of inhibition at 10000 µM [13]: 16 mm; antiviral activity at x-fold lower concentration than acyclovir (HSV-2): 8 fold
12 | COc1cc(OC)cc(C(=O)[Se]CC(=O)C(C)(C)C)c1 [Compound 11] | 19 | 12 | 39 | – | > 30 | > 200 | > 200 | 100 (≈ 34.3 µg/mL) | 100 (≈ 34.3 µg/mL) | 1.25 | 31 | 18 | – | – | zone of inhibition at 200 µM [19]: 10 mm; zone of inhibition at 10000 µM [19]: 18 mm; inhibition at 25 µM (S. aureus ATCC 25923 [7]; compound at 25 μM): > 70%; zone of inhibition at 200 µM [8]: 14 mm; effect on the antibiofilm activity of CIP (S. aureus ATCC 25923 [18]): significantly increased the activity of CIP; antiviral activity at x-fold lower concentration than acyclovir (HSV-2): 4 fold
13 | Nc1nc2c(ncn2COCCO)c(=O)[nH]1 [acyclovir, reference compound] | – | – | – | – | – | – | – | – | – | 10 | – | – | – | – | complete inhibition of HSV-2 replication (HSV-2; examined concentrations 1.25–2500 μM): could not inhibit the replication of HSV-2 completely
